Source: ChEMBL document CHEMBL1201862, “PubChem BioAssay data set” (2004)
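Exposure lasted 48 hours, with cells grown in 96-well plates and compounds tested at five concentrations. At the GI50, growth is halved.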 Activity calls are given as the source filed them. Rule as the data show it: active = GI50 up to about 1.1 µM and inactive = higher.

Legend:
Assay in all cases: inhibition of tumour cell growth, NCI panel, 48 h
[1] = system: LOX IMVI
[2] = system: HT-29
[3] = system: UO-31
[4] = system: SN12C
[5] = system: UACC-62
[6] = system: M14
[7] = system: KM12
[8] = system: HCC 2998
[9] = system: MCF7
[10] = system: NCI-H226
[11] = system: UACC-257
[12] = system: TK-10
[13] = system: ACHN
[14] = system: Malme-3M
[15] = system: NCI/ADR-RES
[16] = system: K562
[17] = system: MDA-MB-435
[18] = system: COLO 205
[19] = system: A498
[20] = system: BT-549

Measured: GI50

O=c1c2ccccc2n2c(S)nnc2n1-c1ccccc1
inactive: [1] > 100 µM | [2] > 100 µM | [3] > 100 µM | [4] > 100 µM | [5] > 100 µM | [6] > 100 µM | [7] > 100 µM | [8] > 100 µM | [9] > 100 µM | [10] > 100 µM | [11] > 100 µM | [12] > 100 µM | [13] > 100 µM | [14] > 100 µM | [15] > 100 µM | [16] > 100 µM | [17] > 100 µM | [18] > 100 µM | [19] > 100 µM

CCCCCCCCCCCCCCCCCC(=O)NCCCNCCCNC(=O)CCCCCCCCCCCCCCCCC
inactive: [1] > 100 µM | [2] > 100 µM | [3] > 100 µM | [4] > 100 µM | [5] > 100 µM | [6] > 100 µM | [8] > 100 µM | [10] > 100 µM | [11] > 100 µM | [12] > 100 µM | [13] > 100 µM | [14] > 100 µM | [16] > 100 µM | [18] > 100 µM | [19] > 100 µM

O=[N+]([O-])c1ccc2c(c1)OCCOCCOc1ccc([N+](=O)[O-])cc1OCCOCCO2
inactive: [1] > 100 µM | [2] > 100 µM | [3] > 100 µM | [4] > 100 µM | [5] > 100 µM | [6] > 100 µM | [7] > 100 µM | [8] > 100 µM | [10] > 100 µM | [11] > 100 µM | [12] > 100 µM | [13] > 100 µM | [14] > 100 µM | [16] > 100 µM | [18] > 100 µM | [19] > 100 µM

COc1ccc2c3c(n(Cc4ccccc4)c(=O)c2c1)-c1cc(OC)c(OC)cc1C3C (centres undefined)
inactive: [1] 14.3 µM | [2] 25.7 µM | [3] 22.2 µM | [4] 14.7 µM | [5] 18.7 µM | [6] 44 µM | [7] 23.3 µM | [8] 36.6 µM | [10] 17.9 µM | [11] 69.8 µM | [12] > 54.3 µM | [13] 11.5 µM | [14] 15.6 µM | [16] 9.89 µM | [18] 41.6 µM | [19] 30.5 µM

CC1(C)O[C@@H](CBr)C[C@H](C[C@H]2C[C@@H](O)C[C@@H](CCOCc3ccccc3)O2)O1
inactive: [1] 26.2 µM | [3] 20.7 µM | [4] 30.4 µM | [5] 18.4 µM | [6] 23.5 µM | [7] 21.5 µM | [8] 24.6 µM | [9] 20 µM | [10] 17.5 µM | [11] 19 µM | [12] 20.4 µM | [13] 23.2 µM | [14] 17.3 µM | [15] 18.7 µM | [16] 40.2 µM | [17] 23.5 µM | [18] 17 µM | [19] 23 µM

Cc1c(C(Cc2ccccc2N(C)C(=O)/C=C\C(=O)O)c2c[nH]c3ccccc23)c2ccccc2n1C (centres undefined)
inactive: [1] 15.3 µM | [2] 15.5 µM | [3] 14.5 µM | [4] 16 µM | [5] 17.2 µM | [6] 15.4 µM | [7] 15.6 µM | [8] 16.3 µM | [10] 19.3 µM | [11] 15.7 µM | [12] 17.7 µM | [13] 17.1 µM | [14] 6.14 µM | [16] 18.7 µM | [18] 14.5 µM | [19] 17.9 µM

CC(C)(C)C(=O)C(CC(=O)c1ccccc1)C(=O)C(C)(C)C
inactive: [1] > 100 µM | [2] > 100 µM | [3] > 100 µM | [4] > 100 µM | [6] > 100 µM | [7] > 100 µM | [8] > 100 µM | [9] > 100 µM | [10] > 100 µM | [11] > 100 µM | [12] > 100 µM | [13] > 100 µM | [14] > 100 µM | [15] > 100 µM | [16] > 100 µM | [17] > 100 µM | [18] > 100 µM | [19] > 100 µM

COc1ccc(/C=C2/C[N+](C)(C)C/C(=C/c3ccc(OC)cc3)C2=O)cc1
inactive: [1] 88.1 µM | [2] 30.2 µM | [3] > 100 µM | [4] 36.1 µM | [5] 16.3 µM | [6] 70.5 µM | [7] 16 µM | [8] 15.3 µM | [10] 20.9 µM | [11] 29.4 µM | [12] > 100 µM | [13] > 100 µM | [14] 22.5 µM | [16] 11.6 µM | [18] 16.9 µM | [19] 68.4 µM

Clc1ccc(C2=NNC(c3cccc(Cl)c3)C2)cc1 (centres undefined)
inactive: [1] 16 µM | [2] 36.9 µM | [3] 1.9 µM | [4] 21.4 µM | [5] 28.8 µM | [6] 53.7 µM | [7] 35.9 µM | [9] 17.4 µM | [10] 35.6 µM | [11] 32.3 µM | [12] 26.4 µM | [14] 28.1 µM | [15] 26.5 µM | [16] 37.4 µM | [17] 17.9 µM | [18] 15.9 µM | [19] 20 µM

Cc1cc2c(cc1C)[n+]([O-])c(C(=O)/C=C/c1ccc(Cl)cc1)c(C)[n+]2[O-]
inactive: [1] 21.7 µM | [2] 30.3 µM | [3] 17.9 µM | [4] 32.8 µM | [5] 20.3 µM | [6] 23.3 µM | [7] 33.7 µM | [8] 23.5 µM | [10] > 100 µM | [11] 27.3 µM | [12] 22.2 µM | [13] 25.5 µM | [14] 38.5 µM | [16] 33.6 µM | [18] 20.5 µM | [19] 26.7 µM

C=C1c2[nH]c3ccccc3c2CC(C(=O)O)N1C(O)c1ccc(S(=O)(=O)O)cc1 (centres undefined)
inactive: [1] > 100 µM | [2] > 100 µM | [3] > 100 µM | [4] > 100 µM | [5] > 100 µM | [6] > 100 µM | [7] > 100 µM | [8] > 100 µM | [10] 42.9 µM | [11] > 100 µM | [12] > 100 µM | [13] > 100 µM | [14] > 100 µM | [16] > 100 µM | [19] > 100 µM

COc1cccc2c1C(=O)C1(O)CCCCC21 (centres undefined)
inactive: [1] > 100 µM | [2] > 100 µM | [3] > 100 µM | [4] > 100 µM | [5] > 100 µM | [6] > 100 µM | [7] > 100 µM | [8] > 100 µM | [10] > 100 µM | [11] > 100 µM | [12] > 100 µM | [13] > 100 µM | [14] > 100 µM | [16] > 100 µM | [18] > 100 µM | [19] > 100 µM

OC1COC2CC(Nc3ccccn3)OC12 (centres undefined)
inactive: [1] > 100 µM | [20] > 100 µM | [2] > 100 µM | [3] > 100 µM | [4] > 100 µM | [5] > 100 µM | [6] > 100 µM | [7] > 100 µM | [8] > 100 µM | [10] > 100 µM | [11] > 100 µM | [12] > 100 µM | [13] > 100 µM | [14] > 100 µM | [15] 56.9 µM | [16] > 100 µM | [17] > 100 µM | [18] > 100 µM

CC1=C(C(=O)NCc2ccccc2)C(c2ccccc2C)C(C(=O)NCc2ccccc2)=C(C)N1
inactive: [1] 17.7 µM | [2] 27.2 µM | [3] 42.8 µM | [4] 25.5 µM | [5] 17.2 µM | [6] 20.4 µM | [7] 24.8 µM | [8] 28.6 µM | [10] 30.7 µM | [11] 10.7 µM | [12] 41.7 µM | [13] 20 µM | [14] 72.6 µM | [16] 38.5 µM | [18] 38.8 µM | [19] 44.3 µM

Cc1cc(Br)c(O)c(-c2cscn2)c1
inactive: [1] 10.2 µM | [20] 10.9 µM | [2] 27.3 µM | [3] 12.7 µM | [4] 10.5 µM | [5] 12.7 µM | [6] 23.6 µM | [8] 19 µM | [11] > 10 µM | [12] 22.4 µM | [13] 14 µM | [14] 21.8 µM | [15] 24 µM | [16] 7.64 µM | [17] 20.7 µM | [18] 18 µM | [19] 23.7 µM

COc1ccc2[nH]c3c(O)nncc3c2c1
inactive: [1] > 100 µM | [2] > 100 µM | [3] > 100 µM | [5] 53.2 µM | [6] > 100 µM | [7] > 100 µM | [8] > 100 µM | [10] > 100 µM | [11] > 100 µM | [12] > 100 µM | [13] > 100 µM | [14] > 100 µM | [16] > 100 µM | [18] > 100 µM | [19] > 100 µM
